Test results published in patent publication US20260209301A1, “Galanin-2 Receptor Agonists” (LIFEARC, priority 2022, published 2026).
Read-outs that look alike come from different tables or passages of the source.

Columns and labels:
GALR2 [1] = target: T1, GALR2 (Homo sapiens, UniProt O43603); test: β-arrestin recruitment, PathHunter CHO-K1 GALR2 cells; format: cell-based; settings: Table 2; mean +/− standard deviation, n ≥ 3
T1 sequence (O43603 1-387): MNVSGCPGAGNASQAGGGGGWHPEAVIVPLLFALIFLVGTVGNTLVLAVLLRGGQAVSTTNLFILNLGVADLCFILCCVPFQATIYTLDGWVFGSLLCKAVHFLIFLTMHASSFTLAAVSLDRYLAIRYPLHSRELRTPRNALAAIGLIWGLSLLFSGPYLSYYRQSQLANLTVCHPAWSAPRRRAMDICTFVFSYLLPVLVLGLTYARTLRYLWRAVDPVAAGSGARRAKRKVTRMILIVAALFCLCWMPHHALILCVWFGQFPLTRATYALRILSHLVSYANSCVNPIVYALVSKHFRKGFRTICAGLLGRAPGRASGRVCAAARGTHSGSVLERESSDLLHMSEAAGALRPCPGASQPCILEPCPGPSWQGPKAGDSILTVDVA
Method: Ligands were prepared at half log dilutions using cell plating reagent 2. 5 μl of each ligand was added to cells and plates incubated at 37° C. for 90 minutes. DiscoverX PathHunter detection kit (DiscoverX, USA) was added to cells as described my manufacturer's guidelines and plates incubated for 60 minutes at room temperature in the dark. Chemiluminescent signal was measured using the PHERAstar FS (BMG, Germany).

GALR3 = target: T2, GALR3 (Homo sapiens, UniProt O60755); test: Luciferase reporter gene assay (SRE), HEK293 Gqi cells; format: cell-based
T2 construct: expressed in transfected cells; host or cells: genetically modified HEK293 Gqi cells, transient
T2 sequence (O60755 1-368): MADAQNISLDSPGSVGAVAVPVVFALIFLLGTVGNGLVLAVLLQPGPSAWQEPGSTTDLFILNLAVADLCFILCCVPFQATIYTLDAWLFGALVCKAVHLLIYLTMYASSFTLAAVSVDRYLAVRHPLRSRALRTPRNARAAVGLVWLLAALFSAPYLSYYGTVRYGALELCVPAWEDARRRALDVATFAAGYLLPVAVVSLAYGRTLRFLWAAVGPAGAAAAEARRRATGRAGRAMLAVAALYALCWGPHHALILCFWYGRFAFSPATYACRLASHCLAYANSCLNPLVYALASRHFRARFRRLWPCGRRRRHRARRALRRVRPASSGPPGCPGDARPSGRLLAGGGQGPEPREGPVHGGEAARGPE
Method: GalR3 activity was measured, alongside GalR1 and GalR2, using a luciferase reporter assay. A reporter plasmid and a receptor plasmid, were transiently transfected into the target cell line. The reporter plasmid contains a serum response element (SRE) or a nuclear factor of activated T-cells response element (NFAT-RE) which is coupled to a luciferase transcript and induces expression of the luciferase upon a specific G-protein (Gai uses SRE; Gaq uses NFAT-RE) activation. The target receptor is constantly expressed after cell transfection. For GALR1 and GALR3 screening, genetically modified HEK293 Gqi cells were transiently transfected with the SRE reporter and the receptor (GALR1 and GALR3) plasmids. For GALR2 screening, HEK293 cells were transiently transfected with the NFAT-RE reporter and the receptor (GALR2) plasmid. […] The luciferase activity was analyzed with the Bright-Glo Luciferase Assay (Promega) in an EnSpire plate reader.
Therefore, to measure activity at the GalR3 receptor a reporter gene assay was used. In this system MAP/ERK signalling is used to measure receptor activity. Activation of Gqi coupled receptors leads to downstream activation of ERK1/2. The activated ERK translocates to the nucleus where it phosphorylates and activates transcription factors, which lead to the binding of Serum response element (SRE). In this assay SRE activation induces expression of a luciferase reporter gene. […] To ensure this effect was not an artifact of the reporter gene assay, GalR1 and GalR2 reporter assays (using SRE and NFAT-RE respectively) were also run.

cynomolgus GalR2 = test: Calcium assay at orthologue receptor; format: cell-based, Macaca fascicularis; settings: Table 8; Calcium assays; mean +/− standard deviation
Excerpt: These species were chosen as they represent potential downstream in vivo models to be used. Within native galanin amino acid residues 1-15 are conserved across species, we would therefore expect the Gal FC fusions comprising amino acids 2 to 13 to retain GalR2 activity in these species. Calcium imaging was used to define receptor activity.

[2] = test system: mouse CCI model of neuropathic pain; format: in vivo; settings: for minimal effective dose (at 4 hrs): von Frey, 4 hrs post-dose
Excerpt: The Chronic Constriction Injury (CCI) model of neuropathic pain involves unilateral loose ligation of four ligatures around the left sciatic nerve at mid-thigh level spaced 1 mm apart (Chaplan S R, et al J Neurosci Methods. 1994 July; 53(1):55-63). This procedure results in the development of hyperalgesia, allodynia and spontaneous pain (ectopic discharges) which can be measured using mechanical and thermal behavioural assessments. […] The mouse CCI model of neuropathic pain differs from that of the rat by virtue of 3 ligatures around the sciatic nerve instead of 4.
Static mechanical tactile allodynia: Static mechanical (tactile) allodynia was assessed by measurement of withdrawal threshold using calibrated (force; g) von-Frey monofilaments (Touch-Test Sensory Evaluator; Scientific Marketing Associates) applied to the plantar surface of the hindpaw. The animals were placed in individual Perspex boxes on a raised metal mesh for 30-40 min before the test. A series of graduated von Frey hairs (0.07, 0.16, 0.4, 0.6 and 1 g) was applied in sequence with a protocol of 1 sec on 1 sec off repeated 10 times. Each hair was applied perpendicularly to the centre of the ventral surface of the paw until it bent slightly. The force applied to the hind-paw of the animal to induce 5 responses out of 10 trials was recorded as paw withdrawal threshold (PWT).
Baseline PWT was assessed on three consecutive days (Day-2, Day-1 and Day 0) and the mean of the last two readings used as the baseline withdrawal threshold.
On Day 1, neuropathic pain was induced via ligation of the sciatic nerve using three loose ligatures of prolene sutures (Chronic Constriction Injury). Under Isoflurane anaesthesia mixed with oxygen (3:1, 1 L/min) the left hind leg was shaved mid-thigh level and an incision made through the skin using a scalpel. The biceps femoris muscle layer was dissected by making an initial incision using a pair of sharp scissors, which was then widened using a pair of blunt scissors. The common sciatic nerve was exposed using a pair of forceps and 3 loose ligatures of prolene (7-0, Ethicon) were tied around the sciatic nerve with 1 mm spacing between each. The nerve was then returned below the muscle layer and the wound closed using absorbable sutures (Vicryl).
Von Frey assessment of mechanical allodynia was taken on days 19 and 22. Animals were then ranked and randomised (based on a Latin square design) to treatment groups according to the percentage change (compared to pre-surgery baseline) of the mean mechanical withdrawal threshold observed on days 19 and 22. Only those animals showing a PWT percentage change of >60% from pre-surgery baseline were included in the study.
Dosing took place on day 23 with either vehicle, test compound (i.p.) or Pregabalin (15 mg/kg p.o.) at 10 ml/kg. Allodynia was then assessed at intervals thereafter e.g. 2, 4 and 24 hours post dose. von Frey measurement continued until activity disappeared up to day 27.
For studies involving a repeat administration, dosing took place on day 23 with either vehicle, test compound (i.p.) or Pregabalin (15 mg/kg p.o.) at 10 mL/kg. Allodynia was then assessed at intervals thereafter e.g. 4, 24 and 48 hours post dose. Animals were re-dosed at 68, 116, 164, 212, 260, 308 hours, with von Frey measurements conducted 4 hrs after each administration. Allodynia was therefore measured at 72, 120, 168, 216, 264, and 312 hours post initial dose, equating to repeat dosing 2, 3, 4, 5, 6 and 7 times, respectively
Evaluation of study & Statistical analysis: vF withdrawal threshold (g) was assessed by a series of graduated von Frey hairs (0.07, 0.16, 0.4, 0.6 and 1 g) applied in sequence to the ipsilateral hindpaw with a protocol of 1 sec on 1 sec off repeated 10 times. Each hair was applied perpendicularly to the centre of the ventral surface of the paw until it bent slightly. […]

GALR2 [3] = target: T1, GALR2; test: Calcium assay, CHO GalR2 cells (FLIPR); settings: mean +/− standard deviation; for GalR2 Calcium, mean pEC50: Table 2, n ≥ 3; for GalR2 activity (calcium assay), warhead length: Table 6
Method: CHO GalR2 cells were plated at 10,000 cells per well in black clear bottom plates (corning, USA) and incubated overnight at 37° C. with 5% CO2. […] Ligands were prepared at a 5× concentration and added to cells using the FLIPR (Molecular Devices, USA). Baseline was typically 20 seconds before ligand addition. […] For analysis, fluorescence was normalised to pre-addition baseline and peak fluorescence used for all quantification.
In brief, a panel of functional cell-based microtiter-plate assays were developed using recombinant GalR1 and GalR2 receptors stably expressed in CHO cells. […] Nominally this equated to 10 serial (~3fold) dilutions with highest concentrations of 10-1 μM as appropriate.
In addition to generating both potency and efficacy estimates, the latter being expressed relative to native galanin, both G-protein and non-G-Protein signalling pathways were measured.

[4] = highest concentration tested 10 μM

## Gal2-13FC: galanin 2-13, AEAAAKEAAAKA linker, human IgG1 FC; SEQ ID NO: 7
GALR2 [1]
  GalR2 Beta Arrestin, mean pEC50: 6.7 +/− 0.2
GALR3
  activity at GalR3 (in words): no measurable activity
Cynomolgus GalR2
  Cynomolgus GalR2 activity: 7.7 +/− 0.4
[2]; 0.03 mg/kg i.p., 4 hours
  effect on withdrawal threshold, low dose: effective
[2]; 0.1 mg/kg, 24 hours
  effect on withdrawal threshold, low dose: statistically significant
[2]; 0.3 and 1 mg/kg i.p., re-dosed days 3-13
  effect-desensitisation on repeat administration: no loss of effect
[2]; mouse CCI
  minimal effective dose (at 4 hrs): 0.03 mg/kg i.p.
[2]; mouse CCI, highest and lowest doses tested
  duration of statistically significant reversal of mechanical hyperalgesia: up to 96 hrs post-dose
[2]; mouse CCI, multiple studies taken collectively
  Minimum Effective Dose [MED]: ≤ 0.03 mg/kg i.p.
[2]; mouse CCI, repeat dosing
  sustained reversal on repeat dosing, duration: ≥ 13 days
[2]; mouse CCI, study with 1, 3, 10 and 30 mg/kg i.p.
  minimal effective dose: ≤ 1 mg/kg i.p.
[2]; mouse, in vivo
  sedation (observational during testing): not associated with overt sedation
GALR2 [3]
  GalR2 Calcium, mean pEC50: 6.3 +/− 0.3
GALR2 [3]; [4]
  GalR2 activity (calcium assay), warhead length: 6.4 +/− 0.1
GALR2 [3]; Table 7, highest concentration tested 10 μM
  GalR2 activity (calcium assay), linker variants: 6.4 +/− 0.1

## Gal2-30FC: galanin 2-30, AEAAAKEAAAKA linker, human IgG1 FC; SEQ ID NO: 28
GALR2 [1]
  GalR2 Beta Arrestin, mean pEC50: 7.3 +/− 0.2
GALR3
  activity at GalR3 (in words): no measurable activity
Cynomolgus GalR2
  Cynomolgus GalR2 activity: 8.4 +/− 0.1
[2]; 3, 10 and 30 mg/kg i.p., 2 and 4 hrs
  reversal of CCI-induced mechanical hyperalgesia: efficacious and reversed CCI-induced mechanical hyperalgesia
[2]; 24 hrs, any of the doses tested (1-30 mg/kg i.p.)
  effect on CCI-induced mechanical hyperalgesia at 24 hrs: not at 24 hrs
[2]; mouse CCI
  minimal effective dose (at 4 hrs): 3 mg/kg i.p.
GALR2 [3]
  GalR2 Calcium, mean pEC50: 6.6 +/− 0.3
GALR2 [3]; [4]
  GalR2 activity (calcium assay), warhead length: 6.8 +/− 0.1
